According to US11939314B2, “Quinolin-2-one derivatives” (MERCK PATENT GMBH, priority 2016, dated 2024):

How the values were obtained:
c-Kit(V654A) = biological target: T1, c-Kit(V654A) (Homo sapiens, UniProt P10721, V654A); test: c-Kit(V654A) assay; type: biochemical; conditions: recombinant human c-Kit aa 544-end, 200 μM ATP, 1.4E-06 means 1.4×10^−6, read-out: Inhibition (IC50) of c-KIT (V654A)
T1 construct: amino acids 544-end containing the V654A mutation; GST (N)
Procedure: (§1) c-Kit(V654A) (N-terminal GST-tagged, recombinant human c-Kit, amino acids 544-end containing the V654A mutation) is incubated with 8 mM MOPS pH 7.0, 0.2 mM EDTA, 250 μM GGMEDIYEFMGGKKK, 10 mM MgAcetate and [gamma-33P-ATP] (specific activity approx. 500 cpm/pmol, concentration 200 μM). The reaction is initiated by the addition of the MgATP mix. After incubation for 40 minutes at room temperature, the reaction is stopped by the addition of 3% phosphoric acid solution. 10 μL of the reaction is then spotted onto a P30 filtermat and washed three times for 5 minutes in 75 mM phosphoric acid and once in methanol prior to drying and scintillation counting.

PDGFRalpha(V561D) = biological target: T2, PDGFRalpha(V561D) (Homo sapiens, UniProt P16234, V561D); test: PDGFRalpha(V561D) assay; type: biochemical; conditions: recombinant human PDGFRalpha aa 550-end, 200 μM ATP, 1.4E-06 means 1.4×10^−6, read-out: Inhibition (IC50) of PDGFRα (V561D)
T2 construct: recombinant human PDGFRalpha, amino acids 550end containing the V561 D mutation; 6His (N)
T2 sequence (P16234 550-1089 V561D): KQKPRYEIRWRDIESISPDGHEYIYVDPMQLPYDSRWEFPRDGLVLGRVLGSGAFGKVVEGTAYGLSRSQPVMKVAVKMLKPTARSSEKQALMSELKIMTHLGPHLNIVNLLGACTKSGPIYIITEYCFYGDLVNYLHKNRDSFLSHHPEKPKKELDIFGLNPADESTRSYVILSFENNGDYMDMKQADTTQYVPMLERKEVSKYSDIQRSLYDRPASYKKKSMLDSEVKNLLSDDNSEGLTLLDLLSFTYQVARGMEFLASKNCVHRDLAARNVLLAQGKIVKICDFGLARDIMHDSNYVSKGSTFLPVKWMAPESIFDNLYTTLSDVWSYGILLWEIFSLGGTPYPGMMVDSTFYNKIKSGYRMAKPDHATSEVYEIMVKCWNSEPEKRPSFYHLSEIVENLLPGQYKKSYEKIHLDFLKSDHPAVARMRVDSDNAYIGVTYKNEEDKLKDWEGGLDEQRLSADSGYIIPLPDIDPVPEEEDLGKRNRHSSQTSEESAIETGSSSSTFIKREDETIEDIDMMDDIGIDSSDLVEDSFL
Procedure: as §1, with “PDGFRalpha(V561D)” for “c-Kit(V654A)”, “6His-tagged,” for “GST-tagged,”, “PDGFRalpha,” for “c-Kit,”, “550end” for “544-end”, “V561 D” for “V654A”

T1 sequence (P10721 544-976 V654A): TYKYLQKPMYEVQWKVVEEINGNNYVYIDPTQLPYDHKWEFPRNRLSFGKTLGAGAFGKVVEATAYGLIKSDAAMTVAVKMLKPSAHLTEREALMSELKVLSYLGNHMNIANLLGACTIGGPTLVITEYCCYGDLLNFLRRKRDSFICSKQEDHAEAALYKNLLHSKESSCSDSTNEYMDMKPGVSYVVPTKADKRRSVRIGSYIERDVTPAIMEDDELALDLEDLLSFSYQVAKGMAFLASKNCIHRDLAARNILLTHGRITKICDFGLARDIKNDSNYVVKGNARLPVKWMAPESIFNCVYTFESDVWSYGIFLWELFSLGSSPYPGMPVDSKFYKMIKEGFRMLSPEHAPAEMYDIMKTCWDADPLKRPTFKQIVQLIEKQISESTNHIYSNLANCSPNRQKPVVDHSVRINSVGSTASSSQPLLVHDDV

IC50 (c-Kit(V654A)) [nM] | IC50 (PDGFRalpha(V561D)) [nM] | SMILES
99 | 13 | O=C(c1ccc(-n2cc(-c3cc4cc(F)cnc4[nH]c3=O)nn2)cc1)N1CCOCC1 [A31, 6-fluoro-3-{1-[4-(morpholine-4-carbonyl)-phenyl]-1H-[1,2,3]triazol-4-yl}-1H-[1,8]naphthyridin-2-one]
35 | 15 | CN1CCC(C(=O)c2ccc(-n3cc(-c4cc5cc(F)ccc5[nH]c4=O)nn3)cc2)CC1 [A161, 6-fluoro-3-{1-[4-(1-methyl-piperidine-4-carbonyl)-phenyl]-1H-[1,2,3]triazol-4-yl}-1H-quinolin-2-one]
26 | 40 | CN1CCN(C(=O)c2ccc(-n3cc(-c4cc5c(F)c(F)ccc5[nH]c4=O)nn3)cc2)CC1 [A156, 5,6-difluoro-3-{1-[4-(4-methyl-piperazine-1-carbonyl)-phenyl]-1H-[1,2,3]triazol-4-yl}-1H-quinolin-2-one]
350 | 46 | COC[C@@H]1CC[C@@H](COC)N1C(=O)c1ccc(-n2cc(-c3cc4cc(F)ccc4[nH]c3=O)nn2)cc1 [A217, 3-{1-[4-((2S,5S)-2,5-bis-methoxymethyl-pyrrolidine-1-carbonyl)-phenyl]-1H-[1,2,3]triazol-4-yl}-6-fluoro-1H-quinolin-2-one]
280 | 230 | O=C(c1ccc(-n2cc(-c3cc4cccc(F)c4[nH]c3=O)nn2)cc1)N1CCNCC1 [A120, 8-fluoro-3-{1-[4-(piperazine-1-carbonyl)-phenyl]-1H-[1,2,3]triazol-4-yl}-1H-quinolin-2-one]
150 | 23 | O=C(c1ccc(-n2cc(-c3cc4ccncc4[nH]c3=O)nn2)cc1)N1CCOCC1 [A29, 3-{1-[4-(morpholine-4-carbonyl)-phenyl]-1H-[1,2,3]triazol-4-yl}-1H-[1,7]naphthyridin-2-one]
1100 | 330 | O=c1[nH]c2ccncc2cc1-c1cn(-c2ccc(F)cc2)nn1 [A45, 3-[1-(4-fluoro-phenyl)-1H-[1,2,3]triazol-4-yl]-1H-[1,6]naphthyridin-2-one]
55 | 110 | O=C(c1ccc(-n2cc(-c3cc4cc(F)ccc4[nH]c3=O)nn2)cc1)N1CCC2(CCOC2)C1 (stereo not shown) [A204, 6-fluoro-3-{1-[4-(2-oxa-7-aza-spiro[4.4]nonane-7-carbonyl)-phenyl]-1H-[1,2,3]triazol-4-yl}-1H-quinolin-2-one]
290 | 67 | COC(=O)c1cc(-n2cc(-c3cc4ccccc4[nH]c3=O)nn2)ccn1 [A17, 4-[4-(2-oxo-1,2-dihydro-quinolin-3-yl)-[1,2,3]triazol-1-yl]-pyridine-2-carboxylic acid methyl ester]
8 | 43 | CN1CCC(CCOc2ccc(-n3cc(-c4cc5cc(F)c(F)cc5[nH]c4=O)nn3)cc2)CC1 [A166, 6,7-difluoro-3-(1-{4-[2-(1-methyl-piperidin-4-yl)-ethoxy]-phenyl}-1H-[1,2,3]triazol-4-yl)-1H-quinolin-2-one]
94 | 110 | NC(=O)[C@H]1CCCN1C(=O)c1ccc(-n2cc(-c3cc4cc(F)ccc4[nH]c3=O)nn2)cc1 [A262, (R)-1-{4-[4-(6-fluoro-2-oxo-1,2-dihydro-quinolin-3-yl)-[1,2,3]triazol-1-yl]-benzoyl}-pyrrolidine-2-carboxylic acid amide]
79 | 620 | COCCN(CCOC)C(=O)c1ccc(-n2cc(-c3cc4cc(F)ccc4[nH]c3=O)nn2)cc1 [A238, 4-[4-(6-fluoro-2-oxo-1,2-dihydro-quinolin-3-yl)-[1,2,3]triazol-1-yl]-N,N-bis-(2-methoxy-ethyl)-benzamide]
47 | 86 | O=C(c1ccc(-n2cc(-c3cc4cc(Cl)ccc4[nH]c3=O)nn2)cc1)N1CC2(COC2)C1 [A258, 6-chloro-3-{1-[4-(2-oxa-6-aza-spiro[3.3]heptane-6-carbonyl)-phenyl]-1H-[1,2,3]triazol-4-yl}-1H-quinolin-2-one]
18 | 11 | O=C(c1ccc(-n2cc(-c3cc4cc(F)ccc4[nH]c3=O)nn2)cc1)N1CCCC(O)C1 (stereo not shown) [A184, 6-fluoro-3-{1-[4-(3-hydroxy-piperidine-1-carbonyl)-phenyl]-1H-[1,2,3]triazol-4-yl}-1H-quinolin-2-one]
1200 | 150 | Cc1ccc2cc(-c3cn(-c4ccc(C(=O)N5CCN(C)CC5)cc4)nn3)c(=O)[nH]c2n1 [A65, 7-methyl-3-{1-[4-(4-methyl-piperazine-1-carbonyl)-phenyl]-1H-[1,2,3]triazol-4-yl}-1H-[1,8]naphthyridin-2-one]
90 | 6 | COCCCN1CCN(C(=O)c2ccc(-n3cc(-c4cc5cc(F)cnc5[nH]c4=O)nn3)cc2)CC1 [A88, 6-fluoro-3-(1-{4-[4-(3-methoxy-propyl)-piperazine-1-carbonyl]-phenyl}-1H-[1,2,3]triazol-4-yl)-1H-[1,8]naphthyridin-2-one]
14 | 10 | CN1CCCN(c2ccc(-n3cc(-c4cc5ccccc5[nH]c4=O)nn3)cc2)CC1 [A69, 3-{1-[4-(4-methyl-[1,4]diazepan-1-yl)-phenyl]-1H-[1,2,3]triazol-4-yl}-1H-quinolin-2-one]
24 | 14 | O=C(c1ccc(-n2cc(-c3cc4ccccc4[nH]c3=O)nn2)cc1)N1CCNCC1 [A50, 3-{1-[4-(piperazine-1-carbonyl)-phenyl]-1H-[1,2,3]triazol-4-yl}-1H-quinolin-2-one]
320 | 310 | COc1ccc2cc(-c3cn(-c4ccc(C(=O)N5CCOCC5)cc4)nn3)c(=O)[nH]c2c1 [A93, 7-methoxy-3-{1-[4-(morpholine-4-carbonyl)-phenyl]-1H-[1,2,3]triazol-4-yl}-1H-quinolin-2-one]
640 | 190 | CN1CCN(c2ncc(-n3cc(-c4cc5ccccc5[nH]c4=O)nn3)cn2)CC1 [A66, 3-{1-[2-(4-methyl-piperazin-1-yl)-pyrimidin-5-yl]-1H-[1,2,3]triazol-4-yl}-1H-quinolin-2-one]
75 | 230 | CCN(CC)[C@H]1CCCN(C(=O)c2ccc(-n3cc(-c4cc5cc(F)ccc5[nH]c4=O)nn3)cc2)C1 [A337, 3-{1-[4-((S)-3-diethylamino-piperidine-1-carbonyl)-phenyl]-1H-[1,2,3]triazol-4-yl}-6-fluoro-1H-quinolin-2-one]
50 | 0.51 | CO[C@@H]1CN(C(=O)c2ccc(-n3cc(-c4cc5cc(Cl)ccc5[nH]c4=O)nn3)cc2)C[C@H]1OC [A271, 6-chloro-3-{1-[4-((3R,4R)-3,4-dimethoxy-pyrrolidine-1-carbonyl)-phenyl]-1H-[1,2,3]triazol-4-yl}-1H-quinolin-2-one]
17 | 16 | O=c1[nH]c2cc(F)c(F)cc2cc1-c1cn(-c2ccc(OCCC3CCNCC3)cc2)nn1 [A134, 6,7-difluoro-3-{1-[4-(2-piperidin-4-yl-ethoxy)-phenyl]-1H-[1,2,3]triazol-4-yl}-1H-quinolin-2-one]
94 | 190 | CC(=O)N(C)c1ccc(-n2cc(-c3cc4cc(F)ccc4[nH]c3=O)nn2)cc1 [A353, N-{4-[4-(6-fluoro-2-oxo-1,2-dihydro-quinolin-3-yl)-[1,2,3]triazol-1-yl]-phenyl}-N-methyl-acetamide]
38 | 9 | O=C(c1ccc(-n2cc(-c3cc4ccccc4[nH]c3=O)nn2)cc1F)N1CCOCC1 [A37, 3-{1-[3-fluoro-4-(morpholine-4-carbonyl)-phenyl]-1H-[1,2,3]triazol-4-yl}-1H-quinolin-2-one]
18 | 180 | O=C(c1ccc(-n2cc(-c3cc4cc(F)ccc4[nH]c3=O)nn2)cc1)N1CCC(N2CCC(O)CC2)C1 (stereo not shown) [A208, 6-fluoro-3-(1-{4-[3-(4-hydroxy-piperidin-1-yl)-pyrrolidine-1-carbonyl]-phenyl}-1H-[1,2,3]triazol-4-yl)-1H-quinolin-2-one]
40 | 1.1 | O=C(c1ccc(-n2cc(-c3cc4cc(Cl)ccc4[nH]c3=O)nn2)cc1)N1CC[C@H](F)C1 [A266, 6-chloro-3-{1-[4-((S)-3-fluoro-pyrrolidine-1-carbonyl)-phenyl]-1H-[1,2,3]triazol-4-yl}-1H-quinolin-2-one]
1300 | 1700 | O=C(c1ccc(-n2cc(-c3cc4ncccc4[nH]c3=O)nn2)cc1)N1CCOCC1 [A85, 3-{1-[4-(morpholine-4-carbonyl)-phenyl]-1H-[1,2,3]triazol-4-yl}-1H-[1,5]naphthyridin-2-one]
55 | 89 | NC(=O)[C@@H]1CCN(C(=O)c2ccc(-n3cc(-c4cc5cc(F)ccc5[nH]c4=O)nn3)cc2)C1 [A226, (R)-1-{4-[4-(6-fluoro-2-oxo-1,2-dihydro-quinolin-3-yl)-[1,2,3]triazol-1-yl]-benzoyl}-pyrrolidine-3-carboxylic acid amide]
